Test results as given in patent publication US11142525B2 (Pfizer Inc., priority 2018, dated 2021).

Biological target: human full-length recombinant HPK1 (Homo sapiens (Human), UniProt Q92918)
Experiment: HPK1 biochemical enzyme assay, microfluidic mobility shift assay (MSA)
Details: HPK1 mobility shift assay; read-out: HPK1 Enzyme Assay_Ki
Method: HPK1 enzyme inhibition was measured using a microfluidic mobility shift assay (MSA). […] The reactions were conducted for 60 min at 37° C., stopped by the addition of 50 μL of 0.015 M EDTA, pH 8, and the extent of reactions (˜15-20% conversion with no inhibitor) was determined after electrophoretic separation of the fluorescently labeled peptide substrate and phosphorylated product on an LabChip EZ Reader II (PerkinElmer, Inc., Waltham, Mass.). […]

Chain of human full-length recombinant HPK1 (Q92918 whole entry): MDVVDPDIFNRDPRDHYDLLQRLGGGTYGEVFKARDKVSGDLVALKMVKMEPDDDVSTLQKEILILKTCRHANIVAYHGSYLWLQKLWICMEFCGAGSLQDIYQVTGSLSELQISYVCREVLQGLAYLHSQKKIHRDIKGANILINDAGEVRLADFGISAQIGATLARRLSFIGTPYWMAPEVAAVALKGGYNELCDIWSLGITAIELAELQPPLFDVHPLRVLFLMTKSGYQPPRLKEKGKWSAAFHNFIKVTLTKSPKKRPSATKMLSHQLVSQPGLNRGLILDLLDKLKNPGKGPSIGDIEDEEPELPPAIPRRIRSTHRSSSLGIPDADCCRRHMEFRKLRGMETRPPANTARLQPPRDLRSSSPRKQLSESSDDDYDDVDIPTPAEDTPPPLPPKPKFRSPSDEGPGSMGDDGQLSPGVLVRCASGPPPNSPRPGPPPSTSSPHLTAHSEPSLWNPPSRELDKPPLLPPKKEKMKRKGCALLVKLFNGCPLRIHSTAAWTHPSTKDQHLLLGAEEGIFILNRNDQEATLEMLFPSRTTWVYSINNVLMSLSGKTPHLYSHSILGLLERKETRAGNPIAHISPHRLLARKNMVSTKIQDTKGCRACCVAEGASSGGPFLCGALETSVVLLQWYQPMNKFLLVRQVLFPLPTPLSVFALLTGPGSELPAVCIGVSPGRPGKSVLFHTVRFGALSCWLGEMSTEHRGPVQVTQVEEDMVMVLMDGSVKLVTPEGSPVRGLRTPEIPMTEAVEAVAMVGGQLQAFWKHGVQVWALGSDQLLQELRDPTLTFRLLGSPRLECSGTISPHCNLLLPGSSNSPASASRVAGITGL

Structure (SMILES) | Ki [nM]
CCN(c1cc2c(c(CNC)n1)CN(c1cccc(-c3nncn3CC)n1)C2=O)C(C)C [Example 84, 6-[ethyl(propan-2-yl)amino]-2-[6-(4-ethyl-4H-1,2,4-triazol-3-yl)pyridin-2-yl]-4-[(methylamino)methyl]-2,3-dihydro-1H-pyrrolo[3,4-c]pyridin-1-one] | 0.14
CNCc1nc(C2CCC2)cc2c1CN(c1cccc(-c3nncn3C(C)C)n1)C2=O [Example 69, 6-cyclobutyl-4-[(methylamino)methyl]-2-{6-[4-(propan-2-yl)-4H-1,2,4-triazol-3-yl]pyridin-2-yl}-2,3-dihydro-1H-pyrrolo[3,4-c]pyridin-1-one] | 0.53
CCC(CC(F)(F)F)n1cnnc1-c1cccc(N2Cc3c(cc(C4(C)CC4)nc3CNC)C2=O)n1 (single isomer, unassigned) [Example 181] | 0.13
CC[C@@H](CO)n1cnnc1-c1cccc(N2Cc3c(cc(C4(C)CC4)nc3CNC)C2=O)n1 (single isomer, unassigned) [Example 184] | 1.15
CCC(CC(F)(F)F)n1cnnc1-c1cccc(N2Cc3c(cc(C4(C)CC4)nc3CNC)C2=O)n1 (single isomer, unassigned) [Example 180] | 25.1
CCCn1c(CC)nnc1-c1cccc(N2Cc3c(cc(N4CCC[C@H]4C)nc3CN)C2=O)n1 [Example 186] | 1.91
CNCc1nc(N(C)C)cc2c1CN(c1cccc(-c3nncn3[C@H](C)C(C)C)n1)C2=O [Example 182] | 0.37
CCNc1cc2c(c(CNC)n1)CN(c1cccc(-c3nncn3C(C)C)n1)C2=O [Example 77, 6-(ethylamino)-4-[(methylamino)methyl]-2-{6-[4-(propan-2-yl)-4H-1,2,4-triazol-3-yl]pyridin-2-yl}-2,3-dihydro-1H-pyrrolo[3,4-c]pyridin-1-one] | 0.68
CNCc1nc(C2(C)CC2)cc2c1CN(c1cccc(-c3nnc(C)n3C3CCC3)n1)C2=O [Example 187] | 26
Cc1nnc(-c2cccc(N3Cc4c(cc(C5(C)CC5)nc4CN)C3=O)n2)n1C1CCC1 [Example 188] | 41
CC[C@H](CO)n1cnnc1-c1cccc(N2Cc3c(cc(C4(C)CC4)nc3CNC)C2=O)n1 (single isomer, unassigned) [Example 183] | 0.35
CCCn1cnnc1-c1cccc(N2Cc3c(cc(N(CC)C(C)C)nc3CNC)C2=O)n1 [Example 99, 6-[ethyl(propan-2-yl)amino]-4-[(methylamino)methyl]-2-[6-(4-propyl-4H-1,2,4-triazol-3-yl)pyridin-2-yl]-2,3-dihydro-1H-pyrrolo[3,4-c]pyridin-1-one] | 0.83
CNCc1nc(N(C)C)cc2c1CN(c1cccc(-c3nncn3[C@@H](C)C(C)C)n1)C2=O [Example 178] | 0.17
CNCc1nc(C2(C)CC2)cc2c1CN(c1cccc(-c3nncn3C3CCCC3)n1)C2=O [Example 179] | 0.47

Same assay, conditions: mobility shift assay; 75 μM ATP; Morrison equation, tight-binding competitive inhibition; read-out: HPK1 Enzyme Assay_Ki

Structure (SMILES) | Ki [nM]
CC(C)n1cnnc1-c1cccc(N2Cc3c(cc(C4CC4)nc3CN)C2=O)n1 [Example 31, 4-(aminomethyl)-6-cyclopropyl-2-{6-[4-(propan-2-yl)-4H-1,2,4-triazol-3-yl]pyridin-2-yl}-2,3-dihydro-1H-pyrrolo[3,4-c]pyridin-1-one] | 0.66
CCc1nnc(-c2cccc(N3Cc4c(cc(N(C)C(C)C)nc4CNC)C3=O)n2)n1CC [Example 67, 2-[6-(4,5-diethyl-4H-1,2,4-triazol-3-yl)pyridin-2-yl]-4-[(methylamino)methyl]-6-[methyl(propan-2-yl)amino]-2,3-dihydro-1H-pyrrolo[3,4-c]pyridin-1-one] | 1.29
CCCn1c(C)nnc1-c1cccc(N2Cc3c(cc(N(C)C(C)C)nc3CNC)C2=O)n1 [Example 64, 4-[(methylamino)methyl]-6-[methyl(propan-2-yl)amino]-2-[6-(5-methyl-4-propyl-4H-1,2,4-triazol-3-yl)pyridin-2-yl]-2,3-dihydro-1H-pyrrolo[3,4-c]pyridin-1-one] | < 0.17
CNCc1nc(N2[C@H](C)C[C@H]2C)cc2c1CN(c1cccc(-c3nncn3C(C)C)n1)C2=O [Example 3, 6-[(2R,4R)-2,4-dimethylazetidin-1-yl]-4-[(methylamino)methyl]-2-{6-[4-(propan-2-yl)-4H-1,2,4-triazol-3-yl]pyridin-2-yl}-2,3-dihydro-1H-pyrrolo[3,4-c]pyridin-1-one] | 0.77
CCCn1cnnc1-c1cccc(N2Cc3c(cc(N(C)C(C)C)nc3CNC)C2=O)n1 [Example 63, 4-[(methylamino)methyl]-6-[methyl(propan-2-yl)amino]-2-[6-(4-propyl-4H-1,2,4-triazol-3-yl)pyridin-2-yl]-2,3-dihydro-1H-pyrrolo[3,4-c]pyridin-1-one] | < 0.09
CNCc1nc(N2[C@H]3CC[C@@H]2CC3)cc2c1CN(c1cccc(-c3nncn3C(C)C)n1)C2=O [Example 25, 6-[(1s,4s)-7-azabicyclo[2.2.1]hept-7-yl]-4-[(methylamino)methyl]-2-{6-[4-(propan-2-yl)-4H-1,2,4-triazol-3-yl]pyridin-2-yl}-2,3-dihydro-1H-pyrrolo[3,4-c]pyridin-1-one] | 1
CCCn1cnnc1-c1cccc(N2Cc3c(cc(N4CCC[C@H]4C)nc3CNC)C2=O)n1 [Example 55, 4-[(methylamino)methyl]-6-[(2R)-2-methylpyrrolidin-1-yl]-2-[6-(4-propyl-4H-1,2,4-triazol-3-yl)pyridin-2-yl]-2,3-dihydro-1H-pyrrolo[3,4-c]pyridin-1-one] | < 0.06
CNCc1nc(N2[C@H](C)CC[C@@H]2C)cc2c1CN(c1cccc(-c3nncn3C(C)C)n1)C2=O [Example 27, 6-[(2R,5S)-2,5-dimethylpyrrolidin-1-yl]-4-[(methylamino)methyl]-2-{6-[4-(propan-2-yl)-4H-1,2,4-triazol-3-yl]pyridin-2-yl}-2,3-dihydro-1H-pyrrolo[3,4-c]pyridin-1-one] | 0.19
CNCc1nc(C(F)(F)F)cc2c1CN(c1cccc(-c3nncn3C(C)C)n1)C2=O [Example 52, 4-[(methylamino)methyl]-2-{6-[4-(propan-2-yl)-4H-1,2,4-triazol-3-yl]pyridin-2-yl}-6-(trifluoromethyl)-2,3-dihydro-1H-pyrrolo[3,4-c]pyridin-1-one] | 89.9
CNCc1nccc2c1CN(c1cccc(-c3nncn3C(C)C)n1)C2=O [Example 23, 4-[(methylamino)methyl]-2-{6-[4-(propan-2-yl)-4H-1,2,4-triazol-3-yl]pyridin-2-yl}-2,3-dihydro-1H-pyrrolo[3,4-c]pyridin-1-one] | 140

Test system: phospho-SLP-76 (Ser376) in Jurkat cells
Experiment: Phospho-SLP-76 (Ser376) Homogeneous Time Resolved Fluorescence (HTRF) assay in Jurkat cells
Type: cell-based
Details: Homo sapiens, 30 min pre-treatment, anti-CD3 stimulation 15 min, HTRF, read-out: SLP76 Assay_IC50
Method: Jurkat cells were seeded at 90,000 cells/well in 90 uL of RPMI1640 growth medium containing 10% FBS and incubated at 37° C. with 5% CO2 overnight. The following day, compounds were serially diluted from a 10 mM top dose for an 11-point 3 fold dilution curve in DMSO. Compounds were intermediately diluted 1:100 into growth media prior to diluting 1:10 on cells for final concentration 10 μM to 0.1 nM in 0.1% DMSO. After 30 minutes pre-treatment with compounds, the cells were stimulated using 200 μg/mL of F(ab)2 complexed anti-CD3 (clone UCTH1) for 15 min at 37° C. with 5% CO2. Stimulation was stopped with ice cold PBS and cells were harvested by centrifugation before lysis in Cisbio lysis buffer (Cisbio, Bedford, Mass.). Lysates were transferred to white, low-volume plates containing anti-phospho-SLP-76-Cryptate plus anti-phospho-SLP-76-d2 HTRF antibodies and incubated overnight at room temperature protected from light according to the manufacturer's protocol (Cisbio, Bedford, Mass.). HTRF was measured on a Perkin Elmer Envision and IC50 values were calculated by concentration-response curve fitting utilizing four-parameter nonlinear regression analyses.

Structure (SMILES) | IC50 [nM]
CNCc1nc(NC)cc2c1CN(c1cccc(-c3nncn3C(C)C)n1)C2=O [Example 24] | 488
CNCc1nc(N2CCCC2)cc2c1CN(c1cccc(-c3nncn3[C@@H](C)CC(F)(F)F)n1)C2=O [Example 15, 4-[(methylamino)methyl]-6-(pyrrolidin-1-yl)-2-(6-{4-[(2S)-4,4,4-trifluorobutan-2-yl]-4H-1,2,4-triazol-3-yl}pyridin-2-yl)-2,3-dihydro-1H-pyrrolo[3,4-c]pyridin-1-one] | 134
CCCn1c(C)nnc1-c1cccc(N2Cc3c(cc(N4CCC[C@H]4C)nc3CNC)C2=O)n1 [Example 62, 4-[(methylamino)methyl]-2-[6-(5-methyl-4-propyl-4H-1,2,4-triazol-3-yl)pyridin-2-yl]-6-[(2R)-2-methylpyrrolidin-1-yl]-2,3-dihydro-1H-pyrrolo[3,4-c]pyridin-1-one] | 42

Same assay, conditions: Homo sapiens, Phospho-SLP-76 (Ser376) HTRF, anti-CD3 stimulation, read-out: SLP76 Assay_IC50

Structure (SMILES) | IC50 [nM]
CCN(c1cc2c(c(CNC)n1)CN(c1cccc(-c3nncn3CC)n1)C2=O)C(C)C [Example 84, 6-[ethyl(propan-2-yl)amino]-2-[6-(4-ethyl-4H-1,2,4-triazol-3-yl)pyridin-2-yl]-4-[(methylamino)methyl]-2,3-dihydro-1H-pyrrolo[3,4-c]pyridin-1-one] | 138
CNCc1nc(C2CCC2)cc2c1CN(c1cccc(-c3nncn3C(C)C)n1)C2=O [Example 69, 6-cyclobutyl-4-[(methylamino)methyl]-2-{6-[4-(propan-2-yl)-4H-1,2,4-triazol-3-yl]pyridin-2-yl}-2,3-dihydro-1H-pyrrolo[3,4-c]pyridin-1-one] | 248
CCCn1c(C)nnc1-c1cccc(N2Cc3c(cc(N4CCC[C@@H]4C)nc3CN)C2=O)n1 [Example 159] | 112
Cc1nnc(-c2cccc(N3Cc4c(cc(N5CCCC5(C)C)nc4CN)C3=O)n2)n1C(C)C [Example 164] | 65
CCCn1c(C)nnc1-c1cccc(N2Cc3c(cc(N4CCC[C@@H]4C)nc3CNC)C2=O)n1 [Example 134, 4-[(methylamino)methyl]-2-[6-(5-methyl-4-propyl-4H-1,2,4-triazol-3-yl)pyridin-2-yl]-6-[(2S)-2-methylpyrrolidin-1-yl]-2,3-dihydro-1H-pyrrolo[3,4-c]pyridin-1-one] | 53
CCCn1c(C)nnc1-c1cccc(N2Cc3c(cc(N4CCC[C@H]4C)nc3CN)C2=O)n1 [Example 133, 4-(aminomethyl)-2-[6-(5-methyl-4-propyl-4H-1,2,4-triazol-3-yl)pyridin-2-yl]-6-[(2R)-2-methylpyrrolidin-1-yl]-2,3-dihydro-1H-pyrrolo[3,4-c]pyridin-1-one] | 232
CCn1c(C)nnc1-c1cccc(N2Cc3c(cc(N4CCC[C@H]4C)nc3CNC)C2=O)n1 [Example 121, 2-[6-(4-ethyl-5-methyl-4H-1,2,4-triazol-3-yl)pyridin-2-yl]-4-[(methylamino)methyl]-6-[(2R)-2-methylpyrrolidin-1-yl]-2,3-dihydro-1H-pyrrolo[3,4-c]pyridin-1-one] | 62
